Tested on: Mature dendrocytes mixed with T-Lymphocytes
Assay: Antigen presentation and T cell stimulation: production of human γ-IFN measured by ELISA
Format: cell-based
Conditions: human γ-IFN production after 2 hours incubation; HLA-A02 CMV-exposed donor PBMC-derived dendrocytes + T-lymphocytes; free peptide at 10^−9 M or 15 micron PLGA microspheres with approximately 2% NLVPMVATV
From the text: Preparation of Dendritic Cells from peripheral blood mononuclear cells (PBMC). Frozen PBMC cells were obtained from Cellular Technology Limited, from volunteer donors known to have been exposed to CMV, and to be HLA-A02. The volunteer's antigen presenting cells were known to be capable of presenting HCMV pp 65 (NLVPMVATV) CMV epitope to T lymphocytes. Human PBMC (Peripheral Blood Mononuclear Cells) isolated from leukopacks and frozen in serum-free CTL-Cryo™ medium. These leukopacks were ethically collected from healthy donors tested for: HBsAg, HBcAb, HCV, HTLV I/II, and STS by serology; as well as HIV I, HCV, and WNV by NAT.
Cells were thawed and plated at a concentration of 1×10^5 monocytes/well of a 24-well plate in medium supplemented with GM-CSF at a final concentration of 50 ng/ml and IL-4 at a final concentration of 100 ng/ml. Cells were maintained in culture at 37° C./5% CO2 for 6 days; and used with 8 days after that point. Optical microscopy confirmed maturation of monocytes to dendrocytes capable of phagocytosis of 15 micron PLGA microspheres.
Presentation of antigen and stimulation of T cells was assessed by production of human γ-IFN, measured by ELISA. […] Production of γ-IFN was measured after 2 hours.

NLVPMVATV [free peptide]
ELISA Optical Density: 0.612
